# Reference: ChEMBL document CHEMBL3885881, “DrugMatrix”
# Species: Rattus norvegicus
# Assay: DrugMatrix - Regimen: Daily Repeat
# Type: toxicity, organism-based, Sprague-Dawley
# Set-up: regimen Daily Repeat, gender Male, age 6-8 weeks
# Conditions: in vivo, po, route oral GAVAGE, vehicle 100 % SALINE
# [1] = 0 mg/kg, 72 h, tissue Plasma, dose level Control, time 3 day
# [2] = 0 mg/kg, 120 h, tissue Blood, dose level Control, time 5 day
# [3] = 0 mg/kg, 120 h, tissue Plasma, dose level Control, time 5 day
# [4] = 200 mg/kg, 72 h, tissue Blood, dose level Low, time 3 day
# [5] = 200 mg/kg, 72 h, tissue Plasma, dose level Low, time 3 day
# [6] = 200 mg/kg, 120 h, tissue Blood, dose level Low, time 5 day
# [7] = 200 mg/kg, 120 h, tissue Plasma, dose level Low, time 5 day
# [8] = 600 mg/kg, 72 h, tissue Blood, dose level High, time 3 day
# [9] = 600 mg/kg, 72 h, tissue Plasma, dose level High, time 3 day
# [10] = 600 mg/kg, 120 h, tissue Blood, dose level High, time 5 day
# [11] = 600 mg/kg, 120 h, tissue Plasma, dose level High, time 5 day
substance,measurement,setting,value
LEAD (II) ACETATE,ALANINE AMINOTRANSFERASE,[1],50.67 u/L
same,ALKALINE PHOSPHATASE,[1],356.33 u/L
same,ASPARTATE AMINOTRANSFERASE,[1],78.17 u/L
same,BLOOD UREA NITROGEN,[1],14.17 mg/dL
same,CARBON DIOXIDE,[1],31.33 mmol/L
same,CHLORIDE,[1],98.5 MEQ/L
same,CHOLESTEROL,[1],76.5 mg/dL
same,CREATINE PHOSPHOKINASE,[1],248.33 u/L
same,CREATININE,[1],0.2 mg/dL
same,LACTATE DEHYDROGENASE,[1],107 u/L
same,LIPASE,[1],9.83 u/L
same,PHOSPHORUS,[1],12.8 mg/dL
same,POTASSIUM,[1],6.75 MEQ/L
same,TOTAL BILIRUBIN,[1],0.18 mg/dL
same,TOTAL PROTEIN,[1],5.98 G/DL
same,URIC ACID,[1],1.42 mg/dL
same,ABSOLUTE BASOPHIL,[2],0 CELLS/uL
same,ABSOLUTE EOSINOPHIL,[2],0 CELLS/uL
same,ABSOLUTE LYMPHOCYTE,[2],8681.17 CELLS/uL
same,ABSOLUTE MONOCYTE,[2],79.83 CELLS/uL
same,ABSOLUTE SEGMENTED NEUTROPHIL,[2],689 CELLS/uL
same,BASOPHIL,[2],0%
same,EOSINOPHIL,[2],0%
same,ERYTHROCYTE COUNT,[2],5.49 x10E6/uL
same,HEMATOCRIT,[2],33.55%
same,HEMOGLOBIN,[2],13.1 G/DL
same,LEUKOCYTE COUNT,[2],9.45 x10E3/uL
same,LYMPHOCYTE,[2],92.33%
same,MEAN CORPUSCULAR HEMOGLOBIN,[2],23.92 pg
same,MEAN CORPUSCULAR HEMOGLOBIN CONCENTRATION,[2],39.07 G/DL
same,MONOCYTE,[2],0.67%
same,NEUTROPHIL,[2],7%
same,NUCLEATED RED BLOOD CELLS,[2],0.17 /100WBC
same,PLATELET COUNT,[2],1001.17 x10E3/uL
same,ALANINE AMINOTRANSFERASE,[3],49.33 u/L
same,ALKALINE PHOSPHATASE,[3],300.33 u/L
same,ASPARTATE AMINOTRANSFERASE,[3],83.5 u/L
same,BLOOD UREA NITROGEN,[3],16 mg/dL
same,CHLORIDE,[3],100.5 MEQ/L
same,CHOLESTEROL,[3],74.33 mg/dL
same,CREATINE PHOSPHOKINASE,[3],489.67 u/L
same,CREATININE,[3],0.35 mg/dL
same,GLUCOSE,[3],151 mg/dL
same,LACTATE DEHYDROGENASE,[3],133.67 u/L
same,LIPASE,[3],11.17 u/L
same,PHOSPHORUS,[3],10.88 mg/dL
same,POTASSIUM,[3],5.5 MEQ/L
same,SODIUM,[3],145.7 MEQ/L
same,TOTAL BILIRUBIN,[3],0.2 mg/dL
same,TOTAL PROTEIN,[3],6.05 G/DL
same,URIC ACID,[3],0.68 mg/dL
same,ABSOLUTE BASOPHIL,[4],0 CELLS/uL
same,ABSOLUTE EOSINOPHIL,[4],42 CELLS/uL
same,ABSOLUTE LYMPHOCYTE,[4],7845 CELLS/uL
same,ABSOLUTE MONOCYTE,[4],45.67 CELLS/uL
same,ABSOLUTE SEGMENTED NEUTROPHIL,[4],634 CELLS/uL
same,BASOPHIL,[4],0%
same,EOSINOPHIL,[4],0.67%
same,ERYTHROCYTE COUNT,[4],5.3 x10E6/uL
same,HEMATOCRIT,[4],32.4%
same,HEMOGLOBIN,[4],12.73 G/DL
same,LEUKOCYTE COUNT,[4],8.57 x10E3/uL
same,LYMPHOCYTE,[4],91.67%
same,MEAN CORPUSCULAR HEMOGLOBIN,[4],24.1 pg
same,MONOCYTE,[4],0.67%
same,NEUTROPHIL,[4],7%
same,NUCLEATED RED BLOOD CELLS,[4],0.67 /100WBC
same,PLATELET COUNT,[4],1060.33 x10E3/uL
same,ALANINE AMINOTRANSFERASE,[5],44.33 u/L
same,ALBUMIN,[5],4.1 G/DL
same,ALKALINE PHOSPHATASE,[5],338.33 u/L
same,ASPARTATE AMINOTRANSFERASE,[5],80.67 u/L
same,BLOOD UREA NITROGEN,[5],14 mg/dL
same,CHLORIDE,[5],100 MEQ/L
same,CHOLESTEROL,[5],80 mg/dL
same,CREATINE PHOSPHOKINASE,[5],412 u/L
same,CREATININE,[5],0.48 mg/dL
same,GLUCOSE,[5],189.33 mg/dL
same,LACTATE DEHYDROGENASE,[5],140.33 u/L
same,LIPASE,[5],11.67 u/L
same,PHOSPHORUS,[5],13.53 mg/dL
same,POTASSIUM,[5],5.59 MEQ/L
same,TOTAL BILIRUBIN,[5],0.13 mg/dL
same,TOTAL PROTEIN,[5],5.93 G/DL
same,URIC ACID,[5],1.37 mg/dL
same,ABSOLUTE BASOPHIL,[6],0 CELLS/uL
same,ABSOLUTE EOSINOPHIL,[6],25 CELLS/uL
same,ABSOLUTE MONOCYTE,[6],82.67 CELLS/uL
same,ABSOLUTE SEGMENTED NEUTROPHIL,[6],668 CELLS/uL
same,BASOPHIL,[6],0%
same,EOSINOPHIL,[6],0.33%
same,ERYTHROCYTE COUNT,[6],5.28 x10E6/uL
same,HEMATOCRIT,[6],32.07%
same,HEMOGLOBIN,[6],12.83 G/DL
same,LEUKOCYTE COUNT,[6],11.1 x10E3/uL
same,LYMPHOCYTE,[6],92.67%
same,MEAN CORPUSCULAR HEMOGLOBIN,[6],24.3 pg
same,MEAN CORPUSCULAR HEMOGLOBIN CONCENTRATION,[6],40.03 G/DL
same,MONOCYTE,[6],0.67%
same,NEUTROPHIL,[6],6.33%
same,NUCLEATED RED BLOOD CELLS,[6],0.67 /100WBC
same,PLATELET COUNT,[6],1339.67 x10E3/uL
same,ALANINE AMINOTRANSFERASE,[7],57.33 u/L
same,ALBUMIN,[7],3.9 G/DL
same,ALKALINE PHOSPHATASE,[7],297 u/L
same,ASPARTATE AMINOTRANSFERASE,[7],91 u/L
same,BLOOD UREA NITROGEN,[7],14.33 mg/dL
same,CARBON DIOXIDE,[7],30 mmol/L
same,CHLORIDE,[7],99.33 MEQ/L
same,CHOLESTEROL,[7],71.33 mg/dL
same,CREATINE PHOSPHOKINASE,[7],225 u/L
same,CREATININE,[7],0.46 mg/dL
same,LACTATE DEHYDROGENASE,[7],122 u/L
same,LIPASE,[7],9 u/L
same,PHOSPHORUS,[7],10.9 mg/dL
same,POTASSIUM,[7],5.95 MEQ/L
same,TOTAL BILIRUBIN,[7],0.13 mg/dL
same,TOTAL PROTEIN,[7],6.23 G/DL
same,URIC ACID,[7],0.7 mg/dL
same,ABSOLUTE BASOPHIL,[8],0 CELLS/uL
same,ABSOLUTE EOSINOPHIL,[8],32.67 CELLS/uL
same,ABSOLUTE LYMPHOCYTE,[8],9967.33 CELLS/uL
same,ABSOLUTE MONOCYTE,[8],129.67 CELLS/uL
same,ABSOLUTE SEGMENTED NEUTROPHIL,[8],570.33 CELLS/uL
same,BASOPHIL,[8],0%
same,EOSINOPHIL,[8],0.33%
same,ERYTHROCYTE COUNT,[8],5.69 x10E6/uL
same,HEMATOCRIT,[8],34.9%
same,HEMOGLOBIN,[8],13.73 G/DL
same,LEUKOCYTE COUNT,[8],10.7 x10E3/uL
same,LYMPHOCYTE,[8],92.67%
same,MEAN CORPUSCULAR HEMOGLOBIN,[8],24.13 pg
same,NEUTROPHIL,[8],5.67%
same,NUCLEATED RED BLOOD CELLS,[8],0.33 /100WBC
same,PLATELET COUNT,[8],964.67 x10E3/uL
same,ALANINE AMINOTRANSFERASE,[9],56.67 u/L
same,ALKALINE PHOSPHATASE,[9],262 u/L
same,ASPARTATE AMINOTRANSFERASE,[9],84.33 u/L
same,BLOOD UREA NITROGEN,[9],13.33 mg/dL
same,CHLORIDE,[9],99 MEQ/L
same,CREATINE PHOSPHOKINASE,[9],319.33 u/L
same,CREATININE,[9],0.55 mg/dL
same,LACTATE DEHYDROGENASE,[9],97 u/L
same,LIPASE,[9],14.33 u/L
same,PHOSPHORUS,[9],11.57 mg/dL
same,POTASSIUM,[9],5.33 MEQ/L
same,TOTAL BILIRUBIN,[9],0.1 mg/dL
same,TOTAL PROTEIN,[9],5.83 G/DL
same,URIC ACID,[9],0.87 mg/dL
same,ABSOLUTE BASOPHIL,[10],0 CELLS/uL
same,ABSOLUTE EOSINOPHIL,[10],20.67 CELLS/uL
same,ABSOLUTE LYMPHOCYTE,[10],6898.67 CELLS/uL
same,ABSOLUTE MONOCYTE,[10],79.33 CELLS/uL
same,ABSOLUTE SEGMENTED NEUTROPHIL,[10],568 CELLS/uL
same,BASOPHIL,[10],0%
same,EOSINOPHIL,[10],0.33%
same,ERYTHROCYTE COUNT,[10],5.67 x10E6/uL
same,HEMATOCRIT,[10],33.33%
same,HEMOGLOBIN,[10],12.97 G/DL
same,LEUKOCYTE COUNT,[10],7.57 x10E3/uL
same,LYMPHOCYTE,[10],90.67%
same,MEAN CORPUSCULAR HEMOGLOBIN,[10],22.87 pg
same,MEAN CORPUSCULAR HEMOGLOBIN CONCENTRATION,[10],38.93 G/DL
same,MEAN CORPUSCULAR VOLUME,[10],58.77 fL
same,MONOCYTE,[10],1%
same,NEUTROPHIL,[10],8%
same,NUCLEATED RED BLOOD CELLS,[10],0 /100WBC
same,PLATELET COUNT,[10],1398 x10E3/uL
same,ALANINE AMINOTRANSFERASE,[11],48 u/L
same,ALBUMIN,[11],4 G/DL
same,ALKALINE PHOSPHATASE,[11],286.67 u/L
same,ASPARTATE AMINOTRANSFERASE,[11],92.67 u/L
same,BLOOD UREA NITROGEN,[11],13.33 mg/dL
same,CHOLESTEROL,[11],76 mg/dL
same,CREATINE PHOSPHOKINASE,[11],510.67 u/L
same,CREATININE,[11],0.28 mg/dL
same,GLUCOSE,[11],157.67 mg/dL
same,LACTATE DEHYDROGENASE,[11],162.67 u/L
same,LIPASE,[11],11 u/L
same,POTASSIUM,[11],4.79 MEQ/L
same,TOTAL BILIRUBIN,[11],0.13 mg/dL
same,TOTAL PROTEIN,[11],5.6 G/DL
same,URIC ACID,[11],0.33 mg/dL
